Assay results: ChEMBL document CHEMBL1146572, “Isolation and characterization of miscellaneous secondary metabolites of Deprea subtriflora” (J Nat Prod, 2003)

How the values were obtained:
[1] = Chemoprevention index, ratio of IC50 for mouse Hepa-1c1c7 cells to CD for NADPH:quinone reductase specific activity in mouse Hepa-1c1c7 cells; format: functional
[2] = Growth inhibition of mouse Hepa-1c1c7 cells; format: cell-based

Structure (SMILES)	Ratio [1]	IC50 [2] [µM]
C[C@H]1CC([C@](C)(O)[C@@]2(O)CC[C@H]3[C@@H]4C[C@H]5O[C@]56[C@@H](O)C=CC(=O)[C@]6(C)[C@H]4CC[C@@]32C)OC(=O)[C@@H]1C (stereo partly specified) [PHILADELPHICALACTONE A]	11.8	0.47
C[C@H]1C(=O)OC(C2O[C@]34C[C@H]5[C@@H](C[C@H]6O[C@H]7CC(=O)[C@@]5(C)[C@@]6(O)C7=O)[C@@H]5C[C@@H](O3)[C@@H]([C@@H]54)[C@@]2(C)O)[C@@H]1C (stereo partly specified) [SUBTRIFLORALACTONE K]	13.3	4.8
C[S+]([O-])CCCCN=C=S (stereo unspecified) [SULFORAPHANE]	23.9	11.7
